Assay results taken from PMC12654176 (Microorganisms, 2025).

System: H10NX AIVs NA activity
Format: biochemical

SMILES: CC(=O)N[C@H]1[C@H]([C@H](O)[C@H](O)CO)OC(C(=O)O)=C[C@@H]1N=C(N)N [Zanamivir, zanamivir]
- susceptibility of H10NX isolates to the drug (phenotypic assay): sensitive
- IC50 (read-out: mean IC50 values, range over the H10NX isolates tested): 0.7 to 1.3 nM
